ChEMBL document CHEMBL4483862, “Open-source discovery of chemical leads for next-generation chemoprotective antimalarials” (2018)

System: Plasmodium berghei
Assay: Luciferase/luciferin-expressing antifolate-resistant parasites were used to infect a culture of HepG2 cells that were pre-incubated with compounds. Infected hepatocytes emit light due to the luciferase reaction. Assay results are presented as the percent inhibition of light emission compared to control. […]
Assay type: functional
Settings: sporozoite; for IC90: read-out: LUCIFERASE INFECTION ASSAY - IC90
[1] = PBLUC_HILL_SLOPE 3.35, PBLUC_R_SQUARED 0.119, read-out: LUCIFERASE INFECTION ASSAY - IC50

SMILES | IC90 [µM] | other results
Cc1cc(C2N=C(N)Nc3nc4ccccc4n32)c(C)n1-c1ccccc1Cl (stereo not given) | 7.59 | IC50 (PBLUC_HILL_SLOPE 3.33, 1.30, PBLUC_R_SQUARED 0.920, 0.833, read-out: LUCIFERASE INFECTION ASSAY - IC50): 3.92 µM
COc1ccc(CC(N)c2csc(NC(=O)Nc3cccc(C(F)(F)F)c3)n2)cc1 (stereo not given) | > 7.56 | IC50 (PBLUC_HILL_SLOPE 3.34, PBLUC_R_SQUARED 0.752, read-out: LUCIFERASE INFECTION ASSAY - IC50): 5.46 µM
Cc1nn(-c2ccccc2)c(Cl)c1/C=N/Nc1nc2ccccc2[nH]1 | > 10 | IC50 [1]: 7.2 µM
CN(/N=C/c1ccc(Cl)cc1)c1ncc(Cl)cc1C(F)(F)F | > 9.48 | IC50 (PBLUC_HILL_SLOPE 3.36, PBLUC_R_SQUARED 0.0281, read-out: LUCIFERASE INFECTION ASSAY - IC50): 7.13 µM
Oc1cccc(-c2cnc3cnc(/C=C/c4ccccc4)cn23)c1 | > 10.5 | IC50 (PBLUC_HILL_SLOPE 3.41, PBLUC_R_SQUARED 0.351, read-out: LUCIFERASE INFECTION ASSAY - IC50): 7.1 µM
O=C(NNC(=O)c1cccn1-c1ccc(F)cc1)Nc1ccc(Cl)c(Cl)c1 | 7.62 | IC50 (PBLUC_HILL_SLOPE 3.35, PBLUC_R_SQUARED 0.178, read-out: LUCIFERASE INFECTION ASSAY - IC50): 3.96 µM
CN(C)c1cccc(-c2cnc3cnc(-c4cccnc4)cn23)c1 | > 10.5 | IC50 (PBLUC_HILL_SLOPE 3.32, PBLUC_R_SQUARED 0.395, read-out: LUCIFERASE INFECTION ASSAY - IC50): 8.6 µM
O=C(Nc1ccc(C(=O)N(CCO)Cc2cccc(OCc3ccccc3Cl)c2)cc1)C1CC1 | > 10 | IC50 (PBLUC_HILL_SLOPE 3.35, PBLUC_R_SQUARED 0.615, read-out: LUCIFERASE INFECTION ASSAY - IC50): 6.85 µM
CCc1ccc(-c2nc(C(=O)Nn3cn[nH]c3=S)cs2)cc1 | > 10 | IC50 (PBLUC_HILL_SLOPE 3.31, PBLUC_R_SQUARED 0.251, read-out: LUCIFERASE INFECTION ASSAY - IC50): 5.44 µM
Nc1c(NC2CCCCC2)cc(NCCO)c2c1C(=O)c1ccccc1C2=O | > 8.7 | IC50 (PBLUC_HILL_SLOPE 3.41, PBLUC_R_SQUARED 0.438, read-out: LUCIFERASE INFECTION ASSAY - IC50): > 8.7 µM
Nc1ncc(-c2ccc(F)cc2F)cc1-c1cccc(C(F)(F)F)c1 | > 9.42 | IC50 (PBLUC_HILL_SLOPE 3.4, PBLUC_R_SQUARED 0.237, read-out: LUCIFERASE INFECTION ASSAY - IC50): 7.55 µM
CC(C)c1ccc(NC(=O)c2ccc(N(C)C)c([N+](=O)[O-])c2)cc1 | 8.31 | IC50 (PBLUC_HILL_SLOPE 3.41, PBLUC_R_SQUARED 0.504, read-out: LUCIFERASE INFECTION ASSAY - IC50): 4.36 µM
Cc1onc(-c2c(Cl)cccc2Cl)c1C(=O)ONC(=N)c1c(Cl)cccc1Cl | > 7.19 | IC50 (PBLUC_HILL_SLOPE 3.4, PBLUC_R_SQUARED 0.373, read-out: LUCIFERASE INFECTION ASSAY - IC50): 5.6 µM
O=C(Nc1ccc[n+](Cc2ccccc2)c1)c1ccccc1-c1ccc(C(F)(F)F)cc1 | > 10 | IC50 (PBLUC_HILL_SLOPE 3.37, PBLUC_R_SQUARED 0.68, read-out: LUCIFERASE INFECTION ASSAY - IC50): 5.76 µM
CN1CCN(c2ccc(NC(=O)c3c[nH]c4ccc(Br)cc34)cn2)CC1 | > 10 | IC50 (PBLUC_HILL_SLOPE 3.31, PBLUC_R_SQUARED 0.596, read-out: LUCIFERASE INFECTION ASSAY - IC50): 8.19 µM
CCOCCCn1c(SCC(=O)N2CCCC3CCCCC32)nc2sc(C)c(C)c2c1=O (stereo not given) | > 10 | IC50 (PBLUC_HILL_SLOPE 3.41, PBLUC_R_SQUARED 0.294, read-out: LUCIFERASE INFECTION ASSAY - IC50): 7.03 µM
Cn1cc(-c2cn3c(-c4ccc(C(C)(C)C)cc4)cnc3cn2)cn1 | > 9.96 | IC50 (PBLUC_HILL_SLOPE 3.33, PBLUC_R_SQUARED 0.519, read-out: LUCIFERASE INFECTION ASSAY - IC50): 6.79 µM
CN(C)CCNc1nc2sc3c(c2c(=O)n1Cc1ccco1)CCCCC3 | 8.43 | IC50 (PBLUC_HILL_SLOPE 3.33, PBLUC_R_SQUARED 0.165, read-out: LUCIFERASE INFECTION ASSAY - IC50): 4.36 µM
CCN1CCC(N(C)c2ccc(S(=O)(=O)N3CCCCCC3)cc2[N+](=O)[O-])CC1 | > 10 | IC50 (PBLUC_HILL_SLOPE 3.35, PBLUC_R_SQUARED 0.446, read-out: LUCIFERASE INFECTION ASSAY - IC50): 6.31 µM
COc1cccc(/C=C/C(=O)Oc2c(Cl)cc(Cl)c3ccc(C)nc23)c1OC | 9.03 | IC50 (PBLUC_HILL_SLOPE 3.32, PBLUC_R_SQUARED 0.808, read-out: LUCIFERASE INFECTION ASSAY - IC50): 4.66 µM

SMILES | IC90 [µM] | other results
COc1cc(-c2cnc3cnc(-c4ccc(CNc5ccccc5)cc4)cn23)cc(OC)c1OC | 5.78 | IC50 (PBLUC_HILL_SLOPE 3.28, PBLUC_R_SQUARED 0.672, read-out: LUCIFERASE INFECTION ASSAY - IC50): 2.96 µM
C=CCn1c(C)cc(C(=O)CSc2nc3ccccc3s2)c1C | 0.221 | IC50 (PBLUC_HILL_SLOPE 3.3, PBLUC_R_SQUARED 0.342, read-out: LUCIFERASE INFECTION ASSAY - IC50): 0.113 µM
CCCCCCCCc1nnc(NC(=O)c2cnc(C)cn2)s1 | 9.2 | IC50 (PBLUC_HILL_SLOPE 3.30, 10.9, PBLUC_R_SQUARED 0.837, 0.639, read-out: LUCIFERASE INFECTION ASSAY - IC50): 6.57 µM
CS(=O)(=O)c1ccc(Nc2cc3[nH]c(-c4cccc(C(F)(F)F)c4)cc3cn2)cc1 | 9.79 | IC50 (PBLUC_HILL_SLOPE 3.36, PBLUC_R_SQUARED 0.528, read-out: LUCIFERASE INFECTION ASSAY - IC50): 5.09 µM
CNc1nn(C(=O)Nc2cccc(C(F)(F)F)c2)cc1[N+](=O)[O-] | > 10 | IC50 (PBLUC_HILL_SLOPE 3.4, PBLUC_R_SQUARED 0.508, read-out: LUCIFERASE INFECTION ASSAY - IC50): 5.63 µM
COc1cc(C(=O)OC(C)c2ccc(F)cc2)cc(OC)c1OC (stereo not given) | > 10 | IC50 (PBLUC_HILL_SLOPE 3.41, PBLUC_R_SQUARED 0.0259, read-out: LUCIFERASE INFECTION ASSAY - IC50): 9.26 µM
FC(F)(F)c1ccc(/C=N/Nc2ccc(C(F)(F)F)cc2)cc1 | > 9.93 | IC50 (PBLUC_HILL_SLOPE 3.36, PBLUC_R_SQUARED 0.386, read-out: LUCIFERASE INFECTION ASSAY - IC50): 5.72 µM
COc1ccc(Cn2nc(C(=O)NC3CCCC3)c3c2CCN(Cc2ccc4c(c2)CCO4)C3)cc1 | > 6.78 | IC50 (PBLUC_HILL_SLOPE 3.3, PBLUC_R_SQUARED 0.745, read-out: LUCIFERASE INFECTION ASSAY - IC50): 3.79 µM
O=C(Nc1ccc(Cl)c(C(F)(F)F)c1)C(c1ccccc1)N1CC=C(c2ccccc2)CC1 (stereo not given) | > 10 | IC50 [1]: 7.2 µM
CN1CCN(c2ccc(-c3cn4c(-c5ccccc5)cnc4cn3)cn2)CC1 | 7.71 | IC50 (PBLUC_HILL_SLOPE 3.35, PBLUC_R_SQUARED 0.57, read-out: LUCIFERASE INFECTION ASSAY - IC50): 4 µM
COC(=O)c1c(C)[nH]c(-c2nc(Nc3cccc(OC)c3)sc2C)c1C | > 10 | IC50 (PBLUC_HILL_SLOPE 3.29, PBLUC_R_SQUARED 0.0567, read-out: LUCIFERASE INFECTION ASSAY - IC50): 7.6 µM
CC(C)(C)c1ccc(C(=O)NC(=S)NNC(=O)c2cccc([N+](=O)[O-])c2)cc1 | 3.57 | IC50 (PBLUC_HILL_SLOPE 3.29, PBLUC_R_SQUARED 0.591, read-out: LUCIFERASE INFECTION ASSAY - IC50): 1.83 µM
CCCCN(CC(=O)N1CCCC(c2nc3ccccc3s2)C1)Cc1nc(=O)c2ccccc2[nH]1 (stereo not given) | > 10 | IC50 (PBLUC_HILL_SLOPE 3.32, PBLUC_R_SQUARED 0.747, read-out: LUCIFERASE INFECTION ASSAY - IC50): 6.35 µM
O=S(=O)(NCc1cc(Cl)cc(Cl)c1)c1cc(C(F)(F)F)cc(C(F)(F)F)c1 | > 7.3 | IC50 (PBLUC_HILL_SLOPE 3.39, PBLUC_R_SQUARED 0.218, read-out: LUCIFERASE INFECTION ASSAY - IC50): 6.75 µM
COc1cccc(NC(=O)Nc2ccc(N3CCN(c4ncccc4C(F)(F)F)CC3)nc2)c1 | > 6.98 | IC50 (PBLUC_HILL_SLOPE 3.4, PBLUC_R_SQUARED 0.647, read-out: LUCIFERASE INFECTION ASSAY - IC50): 5.69 µM
Cc1cc(-c2nc(=O)c3ccccc3[nH]2)c(C)n1CC(C)C | 4.1 | IC50 (PBLUC_HILL_SLOPE 3.39, PBLUC_R_SQUARED 0.354, read-out: LUCIFERASE INFECTION ASSAY - IC50): 2.15 µM
COc1ccc(NC(C)=O)cc1Nc1ncnc2scc(-c3ccccc3)c12 | > 10 | IC50 (PBLUC_HILL_SLOPE 3.37, PBLUC_R_SQUARED 0.17, read-out: LUCIFERASE INFECTION ASSAY - IC50): 9.19 µM
N#Cc1ccccc1COc1ccccc1-c1ccccc1 | > 10 | IC50 (PBLUC_HILL_SLOPE 3.31, PBLUC_R_SQUARED 0.0977, read-out: LUCIFERASE INFECTION ASSAY - IC50): 7.89 µM
COCCn1c(C)cc(C(=O)CN2C(=O)NC(C)(c3ccc(C(C)(C)C)cc3)C2=O)c1C (stereo not given) | > 10 | IC50 (PBLUC_HILL_SLOPE 3.36, PBLUC_R_SQUARED 0.275, read-out: LUCIFERASE INFECTION ASSAY - IC50): 6.15 µM
Cc1nc(Oc2ccc3ccc(=O)oc3c2)c2c3c(sc2n1)CCCCC3 | > 10 | IC50 (PBLUC_HILL_SLOPE 3.34, 13.2, PBLUC_R_SQUARED 0.778, 0.263, read-out: LUCIFERASE INFECTION ASSAY - IC50): 7.83 µM
